Results reported in article PMC7031696 (Cell chemical biology, 2019).
pIC50: −log10 of the molar value. Like-named read-outs stand apart in the source and are kept apart here.

Assays:
[1] = test system: 3D7-MR4 trophozoite parasite-infected RBCs; test: Metabolomic profiling (hydrophilic metabolite changes, UHPLC-MS); assay type: cell-based, Plasmodium falciparum
[2] = test system: asynchronous 3D7-A10 parasite cultures; test: Standard 72-h exposure asexual blood stage susceptibility assay (IC50^72h); assay type: cell-based, Plasmodium falciparum; details: Plasmodium falciparum, 3D7, 72 h, read-out: Overall (72hr assay) Mean IC50 (IC50^72h)
[3] = test system: Plasmodium falciparum 3D7-A10 parasites; test: Stage specificity assay (8-h exposure of synchronized stages, IC50^8h); assay type: cell-based; details: for pIC50: Plasmodium falciparum

SMILES: OC(c1cc(C(F)(F)F)nc2c(C(F)(F)F)cccc12)C1CCCCN1 (stereo not drawn) [Mefloquine, reference compound]
- changes within the set of metabolites detected (low fold change group) ([1]; 10 × IC50^72h, 2.5 hr, trophozoites): did not induce major changes
- Log2(fold changes) 3-phosphoglycerate ([1]; metabolite 3-phosphoglycerate, log2 fold change): 0.2359
- Log2(fold changes) 4-Pyridoxic acid ([1]; metabolite 4-Pyridoxic acid, log2 fold change): 0.0740
- Log2(fold changes) 4-aminobutyrate ([1]; metabolite 4-aminobutyrate, log2 fold change): -0.0258
- Log2(fold changes) 4-phosphopantetheine ([1]; metabolite 4-phosphopantetheine, log2 fold change): 0.0000
- Log2(fold changes) 4-phosphopantothenate ([1]; metabolite 4-phosphopantothenate, log2 fold change): 0.0024
- Log2(fold changes) 5-aminopentanoic acid ([1]; metabolite 5-aminopentanoic acid, log2 fold change): 0.0000
- Log2(fold changes) 5-methyl-THF ([1]; metabolite 5-methyl-THF, log2 fold change): 0.0000
- Log2(fold changes) 5-phosphoribosyl-1-pyrophosphate ([1]; metabolite 5-phosphoribosyl-1-pyrophosphate, log2 fold change): 0.0000
- Log2(fold changes) 6-phospho-D-gluconate ([1]; metabolite 6-phospho-D-gluconate, log2 fold change): -0.0079
- Log2(fold change) HVDD ([1]; metabolite HVDD): 0.0000
- Log2(fold change) Hydroxyisocaproic acid ([1]; metabolite Hydroxyisocaproic acid): 0.0000
- Log2(fold change) IDP ([1]; metabolite IDP): 0.0640
- Log2(fold change) IMP ([1]; metabolite IMP): -0.0534
- Log2(fold change) Inositol ([1]; metabolite Inositol): 0.0000
- Log2(fold change) Isopentyl-PP ([1]; metabolite Isopentyl-PP): 0.0000
- Log2(fold change) L-arginino-succinate ([1]; metabolite L-arginino-succinate): -0.3693
- Log2(fold change) LD ([1]; metabolite LD): 0.0808
- Log2(fold change) Myristoyl/tetradecanoyl-CoA ([1]; metabolite Myristoyl/tetradecanoyl-CoA): 0.0941
- Log2(fold change) N-Acetyl-L-alanine ([1]; metabolite N-Acetyl-L-alanine): -0.2190
- Log2(fold change) N-acetyl-L-ornithine ([1]; metabolite N-acetyl-L-ornithine): -0.0436
- Log2(fold change) N-acetyl-glucosamine-1/6-phosphate ([1]; metabolite N-acetyl-glucosamine-1/6-phosphate): 0.0000
- Log2(fold change) N-acetyl-glutamate ([1]; metabolite N-acetyl-glutamate): 0.0134
- Log2(fold change) N-acetyl-glutamine ([1]; metabolite N-acetyl-glutamine): 0.0000
- Log2(fold change) N-carbamoyl-L-aspartate ([1]; metabolite N-carbamoyl-L-aspartate): 0.0293
- Log2(fold change) NAD+ ([1]; metabolite NAD+): -0.0636
- Log2(fold change) NADH ([1]; metabolite NADH): 0.0000
- Log2(fold change) NADP+ ([1]; metabolite NADP+): -0.0054
- Log2(fold change) NADPH ([1]; metabolite NADPH): 0.3297
- Log2(fold change) O-acetyl-L-serine ([1]; metabolite O-acetyl-L-serine): 0.0000
- Log2(fold change) Octoluse 8/1P ([1]; metabolite Octoluse 8/1P): -0.0524
- Log2(fold change) Octoluse Bisphosphate ([1]; metabolite Octoluse Bisphosphate): -0.1015
- Log2(fold change) PD ([1]; metabolite PD): -0.1757
- Log2(fold change) PE ([1]; metabolite PE): -0.0476
- Log2(fold change) PEE ([1]; metabolite PEE): 0.0186
- Log2(fold change) PEEK ([1]; metabolite PEEK): 0.1844
- Log2(fold change) PVNF ([1]; metabolite PVNF): 0.0025
- Log2(fold change) Pyroglutamic acid ([1]; metabolite Pyroglutamic acid): -0.3976
- Log2(fold change) Pyrophosphate ([1]; metabolite Pyrophosphate): 0.0000
- Log2(fold change) Ribose-5-phosphate ([1]; metabolite Ribose-5-phosphate): 0.0147
- Log2(fold change) S-adenosyl-L-homocysteine ([1]; metabolite S-adenosyl-L-homocysteine): 0.1505
- Log2(fold change) S-adenosyl-L-methioninamine ([1]; metabolite S-adenosyl-L-methioninamine): 0.0000
- Log2(fold change) S-adenosyl-L-methionine ([1]; metabolite S-adenosyl-L-methionine): 0.0000
- Log2(fold change) S-methyl-5'-thioadenosine ([1]; metabolite S-methyl-5'-thioadenosine): 0.0813
- Log2(fold change) SD ([1]; metabolite SD): -0.0876
- Log2(fold change) SDL ([1]; metabolite SDL): -0.0202
- Log2(fold change) SID ([1]; metabolite SID): 0.0863
- Log2(fold change) Sedoheptulose bisphosphate ([1]; metabolite Sedoheptulose bisphosphate): 0.1126
- Log2(fold change) Thiamine pyrophosphate ([1]; metabolite Thiamine pyrophosphate): -0.0341
- Log2(fold changes) UDP-D-glucose ([1]; metabolite UDP-D-glucose, log2 fold change): 0.0242
- Log2(fold changes) UDP-D-glucuronate ([1]; metabolite UDP-D-glucuronate, log2 fold change): 0.0727
- Log2(fold changes) UDP-N-acetyl-glucosamine ([1]; metabolite UDP-N-acetyl-glucosamine, log2 fold change): -0.0280
- Log2(fold changes) UDP ([1]; metabolite UDP, log2 fold change): -0.6698
- Log2(fold changes) UMP ([1]; metabolite UMP, log2 fold change): -0.1565
- Log2(fold changes) UTP ([1]; metabolite UTP, log2 fold change): 0.0862
- Log2(fold change) hydroxyphenylpyruvate ([1]; metabolite hydroxyphenylpyruvate): 0.0000
- Log2(fold change) hydroxyproline/Aminolevulinate ([1]; metabolite hydroxyproline/Aminolevulinate): 0.0725
- Log2(fold change) hypoxanthine ([1]; metabolite hypoxanthine): 0.0000
- Log2(fold change) indole ([1]; metabolite indole): 0.0000
- Log2(fold change) inosine ([1]; metabolite inosine): -0.4356
- Log2(fold change) isoleucine ([1]; metabolite isoleucine): -0.0171
- Log2(fold change) lactate ([1]; metabolite lactate): -0.5208
- Log2(fold change) leucine ([1]; metabolite leucine): -0.1746
- Log2(fold change) lysine ([1]; metabolite lysine): -0.1798
- Log2(fold change) malate ([1]; metabolite malate): -0.0910
- Log2(fold change) maleic acid ([1]; metabolite maleic acid): -0.0602
- Log2(fold change) methionine ([1]; metabolite methionine): -0.0405
- Log2(fold change) myo-inositol ([1]; metabolite myo-inositol): -0.7507
- Log2(fold change) nicotinamide mononucleotide ([1]; metabolite nicotinamide mononucleotide): -0.0942
- Log2(fold change) nicotinate ([1]; metabolite nicotinate): -0.4821
- Log2(fold change) ornithine ([1]; metabolite ornithine): 0.0000
- Log2(fold change) orotate ([1]; metabolite orotate): -0.4063
- Log2(fold change) orotidine-5'-phosphate ([1]; metabolite orotidine-5'-phosphate): -0.7157
- Log2(fold change) oxaloacetate ([1]; metabolite oxaloacetate): 0.0000
- Log2(fold change) p-aminobenzoate ([1]; metabolite p-aminobenzoate): 0.0000
- Log2(fold change) p-hydroxybenzoate ([1]; metabolite p-hydroxybenzoate): 0.0000
- Log2(fold change) pantothenate ([1]; metabolite pantothenate): 0.0000
- Log2(fold change) phenylalanine ([1]; metabolite phenylalanine): -0.1685
- Log2(fold change) phenylpyruvate ([1]; metabolite phenylpyruvate): 0.0000
- Log2(fold change) phosphoenolpyruvate ([1]; metabolite phosphoenolpyruvate): 0.1912
- Log2(fold change) prephenate ([1]; metabolite prephenate): 0.0000
- Log2(fold change) proline ([1]; metabolite proline): -0.3045
- Log2(fold change) pyridoxine ([1]; metabolite pyridoxine): -0.5037
- Log2(fold change) pyruvate ([1]; metabolite pyruvate): -0.3898
- Log2(fold change) riboflavin ([1]; metabolite riboflavin): -0.1185
- Log2(fold change) ribose ([1]; metabolite ribose): -0.0288
- Log2(fold change) ribose-phosphate ([1]; metabolite ribose-phosphate): -0.1512
- Log2(fold change) ribulose-5-phosphate ([1]; metabolite ribulose-5-phosphate): 0.0069
- Log2(fold change) serine ([1]; metabolite serine): -0.0430
- Log2(fold change) sn-glycerol-3-phosphate ([1]; metabolite sn-glycerol-3-phosphate): 0.2262
- Log2(fold change) succinate/Methylmalonic acid ([1]; metabolite succinate/Methylmalonic acid): 0.1026
- Log2(fold change) succinyl-CoA/methylmalonyl-CoA ([1]; metabolite succinyl-CoA/methylmalonyl-CoA): 0.0000
- Log2(fold change) taurine ([1]; metabolite taurine): -0.0060
- Log2(fold change) thiamine ([1]; metabolite thiamine): -0.0860
- Log2(fold change) threonine/homoserine ([1]; metabolite threonine/homoserine): -0.1129
- Log2(fold change) thymidine ([1]; metabolite thymidine): 0.0000
- Log2(fold changes) thymine ([1]; metabolite thymine, log2 fold change): 0.0000
- Log2(fold changes) trehalose-6-Phosphate ([1]; metabolite trehalose-6-Phosphate, log2 fold change): 0.0000
- Log2(fold changes) tryptophan ([1]; metabolite tryptophan, log2 fold change): 0.0186
- Log2(fold changes) tyrosine ([1]; metabolite tyrosine, log2 fold change): 0.0223
- Log2(fold changes) uridine ([1]; metabolite uridine, log2 fold change): 0.0000
- pIC50 [2]: 8.01
- Ratio lowest IC50 8hr/IC50 72hr ([3]; 3D7-A10): 3.0
- pIC50 ([3]; 3D7, read-out: Early rings Mean IC50 (IC50^8h), 8-h exposure 0–8 hr, 3D7-A10, survival at 60 h): 6.59
- pIC50 ([3]; 3D7, read-out: Early trophozoites Mean IC50 (IC50^8h), 8-h exposure 16–24 hr, 3D7-A10, survival at 60 h): 7.54
- pIC50 ([3]; 3D7, read-out: IC50^8h values, text summary of Table S1): > 6.52
- pIC50 ([3]; 3D7, read-out: Late rings Mean IC50 (IC50^8h), 8-h exposure 8–16 hr, 3D7-A10, survival at 60 h): 6.83
- pIC50 ([3]; 3D7, read-out: Late trophozoites Mean IC50 (IC50^8h), 8-h exposure 24–32 hr, 3D7-A10, survival at 60 h): 7.53
- pIC50 ([3]; 3D7, read-out: Schizonts Mean IC50 (IC50^8h), 8-h exposure 32–40 hr, 3D7-A10, survival at 60 h): 6.86
- Stage of peak activity (Figure 6) ([3]; period when the parasite was most susceptible (lowest IC50^8h)): only in trophozoites
- Peak Activity (Table S1) ([3]; stage(s) with the lowest IC50^8h): Trophs
